Target: T1, Recombinant human PDE4B (Homo sapiens, UniProt Q07343)
T1 construct: amino acid 305-end; GST (N); made in house; host or cells: Sf9 insect cells (baculovirus)
Assay: Inhibitory activity of the compounds against PDE 4B (fluorescence polarization, Transcreener AMP2/GMP2)
Format: biochemical
Conditions: recombinant human PDE4B (aa 305-end, GST tag); 1 μM cAMP; 1 hour at room temperature
Method: Inhibitory activity of the compounds against PDE 4B
The assay is based on the fluorescence polarization measuring AMP/GMP production as a result of the enzyme activity by displacement of Tracer binding to the AMP/GMP antibody.
10 mM Tris-HCl (pH 7.5), 5 mM MgCl2, 0.01% Brij 35, 1 mM DTT and 1% DMSO.
Recombinant human PDE4B (Gene accession number: NM_002600; amino acid 305-end) was expressed by baculovirus in Sf9 insect cells using an N-terminal GST tag. MW=78 kDa.
Transcreener® AMP^2/GMP^2 antibody and AMP^2/GMP^2 AlexaFluor 633 tracer
i) Recombinant human PDE4B and the enzyme substrate (1 μM cAMP) were dissolved in the newly-prepared buffer solution, respectively.
ii) The PDE4B buffer solution defined as above was transferred into the reaction wells.
iii) The compound which was dissolved in 100% DMSO was added to the reaction wells of the PDE4B buffer solution by Acoustic technology (Echo550; nanoliter range) and incubated at room temperature for 10 minutes.
iv) The enzymatic buffer solution was then added to the reaction wells defined as above to initiate the reaction.
v) The reaction was incubated at room temperature for 1 hour.
vi) The reaction was terminated by adding detecting mixture (Transcreener® AMP^2/GMP^2 antibody and AMP^2/GMP^2 AlexaFluor 633 tracer) and incubated for 90 minutes with gentle mixing. The measurement range of fluorescence polarization is Ex/Em=620/688.
The fluorescence polarization signal was converted into nM based on the AMP/GMP standard curve and the percent enzyme activity relative to DMSO calculated by Excel. GraphPad Prism was used to plot the curves (Drawing Medicine Icon)

T1 sequence (Q07343 305-736 limits assumed): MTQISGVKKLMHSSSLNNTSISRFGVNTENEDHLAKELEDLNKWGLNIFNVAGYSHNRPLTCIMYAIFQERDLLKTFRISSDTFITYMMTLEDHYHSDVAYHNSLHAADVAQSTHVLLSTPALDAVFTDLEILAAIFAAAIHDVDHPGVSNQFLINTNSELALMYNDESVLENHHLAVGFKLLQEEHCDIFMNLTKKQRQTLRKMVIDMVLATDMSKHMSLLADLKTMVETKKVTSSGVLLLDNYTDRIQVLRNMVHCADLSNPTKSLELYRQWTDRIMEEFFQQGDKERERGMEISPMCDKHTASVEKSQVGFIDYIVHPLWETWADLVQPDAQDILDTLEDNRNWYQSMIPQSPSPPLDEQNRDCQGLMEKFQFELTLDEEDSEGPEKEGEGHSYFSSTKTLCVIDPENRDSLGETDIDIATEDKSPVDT

Structure (SMILES)	IC50 [nM]
CCOc1cc([C@@H](CS(C)(=O)=O)n2c(=O)n(CCO)c3cc(C(F)(F)F)ccc32)ccc1OC [WX056]	4.28
CCOc1cc([C@@H](CS(C)(=O)=O)n2c(=O)n(C)c3cc(F)cc(F)c32)ccc1OC [WX057]	99.6
CCOc1cc([C@@H](CS(C)(=O)=O)n2c(=O)n(CC#N)c3cc(F)cc(F)c32)ccc1OC [WX058]	8.46
CCOc1cc([C@@H](CS(C)(=O)=O)n2c(=O)n(CCO)c3cc(F)cc(F)c32)ccc1OC [WX059]	68.3
CCOc1cc([C@@H](CS(C)(=O)=O)n2c(=O)n(Cc3ccccc3F)c3cc(C(F)(F)F)cc(F)c32)ccc1OC [WX060]	34.4
CCOc1cc([C@@H](CS(C)(=O)=O)n2c(=O)n(CC(F)F)c3c(Cl)cccc32)ccc1OC [WX061]	39
CCOc1cc([C@@H](CS(C)(=O)=O)n2c(=O)n(CC(F)(F)F)c3c(Cl)cccc32)ccc1OC [WX062]	54.9
CCOc1cc(C(CS(C)(=O)=O)n2c(=O)n(CCS(C)(=O)=O)c3cc(Br)ccc32)ccc1OC (stereo not shown) [WX063]	20.8
CCOc1cc([C@@H](CS(C)(=O)=O)n2c(=O)n(Cc3ccccc3F)c3cc(Br)ccc32)ccc1OC [WX064]	0.91
CCOc1cc([C@@H](CS(C)(=O)=O)n2c(=O)n(Cc3cccc(F)c3)c3cc(Br)ccc32)ccc1OC [WX065]	1.43
CCOc1cc([C@@H](CS(C)(=O)=O)n2c(=O)n(Cc3ccc(F)cc3)c3cc(Br)ccc32)ccc1OC [WX066]	1.54
CCOc1cc([C@@H](CS(C)(=O)=O)n2c(=O)n(Cc3ccccc3F)c3ccccc32)ccc1OC [WX067]	10.1
CCOc1cc([C@@H](CS(C)(=O)=O)n2c(=O)n(C)c3cc(-c4ccccc4F)ccc32)ccc1OC [WX068]	0.707
CCOc1cc([C@@H](CS(C)(=O)=O)n2c(=O)n(CC)c3cc(-c4ccccc4F)ccc32)ccc1OC [WX069]	0.477
CCOc1cc([C@@H](CS(C)(=O)=O)n2c(=O)n(C(C)C)c3cc(-c4ccccc4F)ccc32)ccc1OC [WX070]	1.25
CCOc1cc([C@@H](CS(C)(=O)=O)n2c(=O)n(CC#N)c3cc(-c4ccccc4F)ccc32)ccc1OC [WX071]	< 0.5
CCOC(=O)c1ccc2c(c1)n(CC(F)F)c(=O)n2[C@H](CS(C)(=O)=O)c1ccc(OC)c(OCC)c1 [WX072]	14.8
CCOC(=O)c1ccc2c(c1)n(CC(F)(F)F)c(=O)n2[C@H](CS(C)(=O)=O)c1ccc(OC)c(OCC)c1 [WX073]	31.8
CCOC(=O)c1ccc2c(c1)n(C)c(=O)n2[C@H](CS(C)(=O)=O)c1ccc(OC)c(OCC)c1 [WX074]	10.2
CCOc1cc(C(CS(C)(=O)=O)n2c(=O)[nH]c3cc(-c4ccccc4F)ccc32)ccc1OC(F)F (stereo not shown) [WX075]	0.68
COc1ccc(C(CS(C)(=O)=O)n2c(=O)[nH]c3cc(-c4ccccc4F)ccc32)cc1 (stereo not shown) [WX076]	21.8
CCOc1cc(C(CS(C)(=O)=O)n2c(=O)oc3cc(Br)ccc32)ccc1OC (stereo not shown) [WX077]	46.8

Structure (SMILES)	IC50 [nM]
CCOc1cc([C@@H](CS(C)(=O)=O)n2c(=O)[nH]c3c(-c4cnn(C)c4)cccc32)ccc1OC [WX078]	0.822
CCOc1cc([C@@H](CS(C)(=O)=O)n2c(=O)[nH]c3c(C(C)C)cccc32)ccc1OC [WX079]	2.53
CCOc1cc([C@@H](CS(C)(=O)=O)n2c(=O)[nH]c3c(C4=CCOCC4)cccc32)ccc1OC [WX080]	1.03
CCOc1cc([C@@H](CS(C)(=O)=O)n2c(=O)[nH]c3c(C4CCOCC4)cccc32)ccc1OC [WX081]	1.38
CCOc1cc([C@@H](CS(C)(=O)=O)n2c(=O)[nH]c3c(-c4ccccc4OC)cccc32)ccc1OC [WX082]	< 0.5
CCOc1cc([C@@H](CS(C)(=O)=O)n2c(=O)[nH]c3c(-c4ccccc4C)cccc32)ccc1OC [WX083]	< 0.5
CCOc1cc([C@@H](CS(C)(=O)=O)n2c(=O)[nH]c3c(-n4cccn4)cccc32)ccc1OC [WX084]	18.1
CCOc1cc([C@@H](CS(C)(=O)=O)n2c(=O)[nH]c3c(C(=O)N4CCCC4)cccc32)ccc1OC [WX085]	5.64
CCOc1cc([C@@H](CS(C)(=O)=O)n2c(=O)[nH]c3c(C(C)=O)cccc32)ccc1OC [WX086]	36.2
CCOc1cc([C@@H](CS(C)(=O)=O)n2c(=O)[nH]c3c(-c4ccccc4F)cccc32)ccc1OC [WX087]	1.29
CCOc1cc([C@@H](CS(C)(=O)=O)n2c(=O)[nH]c3c(-c4cccc(F)c4)cccc32)ccc1OC [WX088]	2.4
CCOc1cc([C@@H](CS(C)(=O)=O)n2c(=O)[nH]c3c(-c4ccc(F)cc4)cccc32)ccc1OC [WX089]	2.52
CCOc1cc([C@@H](CS(C)(=O)=O)n2c(=O)[nH]c3c(-c4ccccc4)cccc32)ccc1OC [WX090]	0.341
CCOc1cc([C@@H](CS(C)(=O)=O)n2c(=O)[nH]c3c(C4CC4)cccc32)ccc1OC [WX091]	3.98
C=C(C)c1cccc2c1[nH]c(=O)n2[C@H](CS(C)(=O)=O)c1ccc(OC)c(OCC)c1 [WX092]	2.15
CCOc1cc([C@@H](CS(C)(=O)=O)n2c(=O)[nH]c3c(-c4cccs4)cccc32)ccc1OC [WX093]	1.25
CCOc1cc([C@@H](CS(C)(=O)=O)n2c(=O)[nH]c3c(Cc4ccccc4F)cccc32)ccc1OC [WX094]	< 0.5
CCOc1cc([C@@H](CS(C)(=O)=O)n2c(=O)[nH]c3c(-c4nccs4)cccc32)ccc1OC [WX095]	6.58
CCOc1cc([C@@H](CS(C)(=O)=O)n2c(=O)[nH]c3c(-c4ncc(F)cn4)cccc32)ccc1OC [WX096]	7.3
CCOc1cc([C@@H](CS(C)(=O)=O)n2c(=O)[nH]c3c(-c4ncccc4F)cccc32)ccc1OC [WX097]	5.04
CCOC(=O)c1cccc2c1[nH]c(=O)n2[C@H](CS(C)(=O)=O)c1ccc(OC)c(OCC)c1 [WX098]	18.1
